Key:
[1] = system: Mouse macrophages (RAW 264.7); test: In vitro cytokine measurement (real time PCR of transcripts) in macrophages; assay type: cell-based
Method: Cell growth media consisted of Dulbecco's modified Eagle's medium supplemented with 10% heat-inactivated fetal bovine serum (Sigma, St. Louis, Mo., U.S.A.) and 1× penicillin-streptomycin (Gibco, Carlsbad, Calif., U.S.A.). Cells were maintained in a humidified atmosphere of 95% air and 5% CO2. Total RNA was isolated using the RNeasy Mini Kit (Qiagen, Valencia, Calif., U.S.A.). RNA was then treated with 2 units of DNase I (Ambion, Austin, Tex., U.S.A.) at 37° C. for 30 min. Reverse transcription was performed according to the manufacturer's instructions. Briefly, the reverse transcription reaction mixture consisted of 1 μg DNase 1-treated RNA, 500 ng oligo-[…], 10 mM dNTP, 40 units RNasin (Promega, Madison, Wis., U.S.A.), and 200 units of reverse transcriptase SUPERSCRIPT IIITM (Invitrogen, Carlsbad, Calif., U.S.A.). cDNA synthesis was carried out at 50° C. for 1 hr followed by inactivation of reverse transcriptase at 70° C. for 15 min. […] Cell maintenance and 3T3-L1 preadipocyte differentiation is described herein below. For pharmacological experiments, cells were seeded at a density of 5×10^5 cells/well in a 12-well plate (Corning). Total RNA was isolated and reverse transcribed as described in the supplementary materials. […] TNFα, IL-1β, and IL-6 transcript levels were normalized to Glyceraldehyde-3-phosphate dehydrogenase (GAPDH).

Sprague-Dawley rats = test: Mechanical and thermal pain behavior testing (von Frey monofilaments, radiant heat); assay type: in vivo, rat; settings: for blockade of OR486-induced hyperalgesia / heightened pain sensitivity: antagonist i.p. prior to OR486; for paw withdrawal latency to radiant heat after OR486, selective βAR antagonists: i.p. 10 min prior to OR486, ICI118,551 5.0 mg/kg; for paw withdrawal latency to radiant heat after OR486, selective βAR antagonists / paw withdrawal frequency to mechanical stimuli after OR486, selective βAR antagonists / paw withdrawal threshold to mechanical stimuli after OR486, selective βAR antagonists: SR59230A 5 or 50 mg/kg, betaxolol 0.1, 1.0, 10 mg/kg, relative to vehicle prior to OR486; for paw withdrawal frequency to mechanical stimuli after OR486, selective βAR antagonists / paw withdrawal threshold to mechanical stimuli after OR486, selective βAR antagonists: i.p. 10 min prior to OR486, ICI118,551 0.5 or 5.0 mg/kg; for paw withdrawal frequency to mechanical stimuli, antagonist in the absence of OR486 / paw withdrawal latency to radiant heat, antagonist in the absence of OR486 / paw withdrawal threshold to mechanical stimuli, antagonist in the absence of OR486: i.p. 10 min prior to vehicle, phentolamine 3, propranolol 3, SCH23390 0.2, spiperone 0.2, betaxolol 1.0, ICI118,551 0.5, SR59230A 5 mg/kg, relative to vehicle
Method: Rats were placed in plexiglass cages positioned over an elevated perforated stainless steel platform and habituated to the environment for 15-25 min prior to testing. Paw withdrawal threshold to punctate mechanical stimulation was assessed using the up-down method of Chaplan et al. (1994). A series of nine calibrated filaments (with bending forces of 0.40, 0.68, 1.1, 2.1, 3.4, 5.7, 8.4, 13.2, and 25.0 g; Sammons Preston Rolyan, Bolingbrook, Ill., U.S.A.) with approximately equal logarithmic spacing between stimuli (Mean±SEM: 0.232±0.04 units) were presented to the hind paw in successive order, whether ascending or descending. Filaments were positioned in contact with the hind paw for a duration of 3 s or until a withdrawal response occurred. Testing was initiated with the middle hair of the series (3.4 g). In the absence of a paw withdrawal response, an incrementally stronger filament was presented and in the event of a paw withdrawal, an incrementally weaker filament was presented. After the initial response threshold was crossed, this procedure was repeated four times in order to obtain a total of six responses in the immediate vicinity of the threshold. The presence of paw withdrawal (X) and absence of withdrawal (O) was noted together with the terminal filament used in the series of six responses. The 50% g threshold=(10^[Xf+kδ])/10,000, where Xf=value (in log units) of the final von Frey hair used; k=tabular value of pattern of positive (X) and negative (O) responses, and δ=mean difference (in log units) between stimuli.
Immediately following determination of the response threshold, paw withdrawal frequency (%) to punctate mechanical stimulation was assessed. A von Frey monofilament with a calibrated bending force of 25 g was presented to the hind paw 10 times for a duration of 1 s with an interstimulus interval of approximately 1 s. Mechanical hyperalgesia was defined as an increase in the percentage frequency ([# of paw withdrawals/10]×100) of paw withdrawal evoked by stimulation with von Frey monofilaments.
Thermal hyperalgesia was evaluated using the radiant heat method of Hargreaves et al. (1988) in the same animals evaluated for responsiveness to von Frey monofilaments. Radiant heat was presented through the floor of a finely perforated stainless steel platform to the midplantar region of the hind paw.
After establishing stable baseline responsiveness to mechanical and thermal stimuli, separate groups of rats received intraperitoneal injections of OR486 (30 mg/kg i.p.; N=8) or vehicle (N=8) one hour prior to behavioral testing. Responsiveness to von Frey filaments was reassessed at 30 min intervals for 2 hours. Paw withdrawal latencies to radiant heat were subsequently assessed at 2.5 hours into the testing procedure. Twenty-four hours later, baseline responsiveness to mechanical and thermal stimuli was reestablished. Animals received OR486 (30 mg/kg i.p.) or vehicle (consistent with the previous day). Thirty minutes following administration of drug or vehicle, separate groups of rats received intraplantar carrageenan (N=4 per group) or saline (N=4 per group). Responsiveness to von Frey filaments was reassessed at 30 min intervals for 2 hours following the induction of inflammation. Paw withdrawal latencies to radiant heat were subsequently assessed at 2.5 hours post carrageenan.
Rats were handled and habituated to the testing environment 2-3 days prior to establishing baseline responsiveness. On test days, rats were placed in plexiglass cages positioned over an elevated perforated stainless steel platform and habituated to the environment for 15-20 minutes prior to testing. Paw withdrawal threshold to punctate mechanical stimulation was assessed using the up-down method of Chaplan (Chaplan et al. (1994)). […]

TNFα, IL-1β, and IL-6 = test: In vivo plasma cytokine measurement (ELISA); design: species or system rat; settings: rats; ICI118,551 or SR59230A prior to OR486, low, middle and high dose pooled; relative to vehicle prior to OR486
Method: Blood was centrifuged and plasma separated from red blood cells. Plasma IL-6 was measured in duplicate using enzyme-linked immunosorbant assay (ELISA) kits from R&D systems (Minneapolis, Minn., U.S.A.). Plasma TNFα and IL-1β were measured in duplicate by the University of North Carolina Proteomics Ilmmunotechnologies Core using ELISA kits from Biosource (Camarillo, Calif., U.S.A.) and the National Institute for Biological Standards and Control (UK), respectively.

3T3-L1 adipocytes = test: In vitro cytokine measurement (real time PCR of transcripts) in adipocytes; assay type: cell-based, mouse
Method: Cell growth media consisted of Dulbecco's modified Eagle's medium supplemented with 10% heat-inactivated fetal bovine serum (Sigma, St. Louis, Mo., U.S.A.) and 1× penicillin-streptomycin (Gibco, Carlsbad, Calif., U.S.A.). Cells were maintained in a humidified atmosphere of 95% air and 5% CO2.
Two days after reaching confluence in growth media, adipogenesis was induced by incubating cells in growth media containing 0.25 μM dexamethasone (Sigma), 0.5 mM IBMX (Sigma), and 1 μM insulin (Sigma). After an additional 2 days in growth media containing 1 μM insulin, cells were grown for 6-8 days in normal growth media.
Total RNA was isolated using the RNeasy Mini Kit (Qiagen, Valencia, Calif., U.S.A.). RNA was then treated with 2 units of DNase I (Ambion, Austin, Tex., U.S.A.) at 37° C. for 30 min. Reverse transcription was performed according to the manufacturer's instructions. Briefly, the reverse transcription reaction mixture consisted of 1 μg DNase 1-treated RNA, 500 ng oligo-dT12-18, 10 mM dNTP, 40 units RNasin (Promega, Madison, Wis., U.S.A.), and 200 units of reverse transcriptase SUPERSCRIPT III™ (Invitrogen, Carlsbad, Calif., U.S.A.). cDNA synthesis was carried out at 50° C. for 1 hr followed by inactivation of reverse transcriptase at 70° C. for 15 min.
Mouse macrophages (RAW 264.7) and […] preadipocytes (3T3-L1) were obtained from the University of North Carolina Tissue Culture Facility. Cell maintenance and 3T3-L1 preadipocyte differentiation is described herein below. For pharmacological experiments, cells were seeded at a density of 5×10^5 cells/well in a 12-well plate (Corning). Total RNA was isolated and reverse transcribed as described in the supplementary materials. TNFα, IL-1β, and IL-6 transcripts were quantitated in quadruplicate by real time polymerase chain reaction using TAQMAN® Gene Expression Assays (Applied Biosystems, Foster City, Calif., U.S.A.) in an ABI PRISM 7000 Sequence Detection System. TNFα, IL-1β, and IL-6 transcript levels were normalized to Glyceraldehyde-3-phosphate dehydrogenase (GAPDH).

[2] = pretreatment 30 min: betaxolol 0.3 μM, ICI118,551 0.3 μM, SR59230A 0.1 μM, then salmeterol 0.5 μM 1 hr
[3] = salmeterol 0.5 μM, 1 hr treatment, normalized to GAPDH

Row | Structure (SMILES) | blockade of salmeterol-induced increase in macrophage IL-1β and IL-6 transcript levels [1, 2] | blockade of OR486-induced hyperalgesia / heightened pain sensitivity (Sprague-Dawley rats) | paw withdrawal latency to radiant heat after OR486, selective βAR antagonists (Sprague-Dawley rats) | paw withdrawal frequency to mechanical stimuli after OR486, selective βAR antagonists (Sprague-Dawley rats) | paw withdrawal threshold to mechanical stimuli after OR486, selective βAR antagonists (Sprague-Dawley rats) | paw withdrawal frequency to mechanical stimuli, antagonist in the absence of OR486 (Sprague-Dawley rats) | paw withdrawal latency to radiant heat, antagonist in the absence of OR486 (Sprague-Dawley rats) | paw withdrawal threshold to mechanical stimuli, antagonist in the absence of OR486 (Sprague-Dawley rats) | levels of IL-1β after OR486, selective β2 or β3 antagonist (TNFα, IL-1β, and IL-6) | levels of IL-6 after OR486, selective β2 or β3 antagonist (TNFα, IL-1β, and IL-6) | levels of TNFα after OR486, selective β2 or β3 antagonist (TNFα, IL-1β, and IL-6) | blockade of salmeterol-induced increase in adipocyte TNFα and IL-6 transcript levels (3T3-L1 adipocytes; [2]) | blockade of CL316243-induced increase in adipocyte IL-6 transcript levels (3T3-L1 adipocytes; pretreatment 30 min: betaxolol 0.3 μM, ICI118,551 0.3 μM, SR59230A 0.1 μM, then CL316243 0.3 μM 1 hr) | increase in IL-1β mRNA levels in macrophages [1, 3] | increase in IL-6 mRNA levels in macrophages [1, 3] | increase in IL-6 mRNA levels in adipocytes (3T3-L1 adipocytes; salmeterol 0.5 μM or CL316243 0.3 μM, 1 hr treatment, normalized to GAPDH) | increase in TNFα mRNA levels in adipocytes (3T3-L1 adipocytes; [3])
1 | Cc1ccc(OCC(O)C(C)NC(C)C)c2c1CCC2 (single isomer, unassigned; (-)) [ICI118,551, (−)-1-(2,3-[dihydro-7-methyl-1H-inden-4-yl]oxy)-3-([1-methylethyl]-amino)-2-butanol] | completely blocked | partially blocked | increased paw withdrawal latency | decreased paw withdrawal frequency | increased paw withdrawal threshold | failed to affect | failed to affect | failed to affect | decreased levels | decreased levels | decreased levels | completely blocked | – | – | – | – | –
2 | CCc1ccccc1OC[C@@H](O)CN[C@H]1CCCc2ccccc21 [SR59230A, (1-(2-ethylphenoxy)-3-[[(1S)-1,2,3,4-tetrahydro-1-naphthalenyl]amino]-(2S)-2-propanol)] | – | partially blocked | increased paw withdrawal latency | decreased paw withdrawal frequency | increased paw withdrawal threshold | failed to affect | failed to affect | failed to affect | decreased levels | decreased levels | decreased levels | – | completely blocked | – | – | – | –
3 | OCc1cc(C(O)CNCCCCCCOCCCCc2ccccc2)ccc1O (stereo not drawn) [salmeterol] | – | – | – | – | – | – | – | – | – | – | – | – | – | 38 fold | 6.5 fold | 8 fold | 6 fold
